Measured values: ChEMBL document CHEMBL3351364 (J Med Chem, 2014)

Assays:
[1] = Cytotoxicity against human HuH7 cells; type: cell-based, Huh-7
Hepatitis C virus [2] = assay: Antiviral activity against HCV genotype 4a; type: functional, Hepacivirus hominis
[3] = Oral bioavailability in Sprague-Dawley rat at 11.2 mg/kg; type: ADME, organism-based; conditions: in vivo
Yellow fever virus = assay: Antiviral activity against Yellow fever virus infected in african green monkey Vero-76 cells after 3 days; type: functional, organism-based; conditions: Vero 76, 72 h
Hepatitis C virus [4] = assay: Antiviral activity against HCV genotype 1b infected in human Huh7 cells after 3 days by cell-based replicon assay in presence of 10% fetal bovine serum; type: functional, Hepacivirus hominis; conditions: Huh-7, 72 h
[5] = Solubility of the compound in water at pH 4; type: physicochemical
Cytochrome P450 2C19 = Cytochrome P450 2C19 (Homo sapiens, UniProt P33261); assay: Inhibition of human liver CYP2C19; type: ADME
Cytochrome P450 2C19, sequence (P33261 whole entry): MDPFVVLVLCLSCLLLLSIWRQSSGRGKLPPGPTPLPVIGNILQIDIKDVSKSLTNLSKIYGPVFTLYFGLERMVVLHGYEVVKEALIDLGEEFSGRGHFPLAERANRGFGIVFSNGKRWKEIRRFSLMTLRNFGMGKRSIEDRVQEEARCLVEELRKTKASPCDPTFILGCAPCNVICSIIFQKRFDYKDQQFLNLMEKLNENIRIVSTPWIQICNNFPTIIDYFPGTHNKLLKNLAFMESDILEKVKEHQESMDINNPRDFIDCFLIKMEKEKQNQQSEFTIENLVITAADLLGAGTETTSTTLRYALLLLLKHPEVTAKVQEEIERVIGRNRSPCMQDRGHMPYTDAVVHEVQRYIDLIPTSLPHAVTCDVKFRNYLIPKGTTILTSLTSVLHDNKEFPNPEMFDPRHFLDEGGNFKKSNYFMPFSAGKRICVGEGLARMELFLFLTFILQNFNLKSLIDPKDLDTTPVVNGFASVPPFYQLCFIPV

Cytochrome P450 2D6 = Cytochrome P450 2D6 (Homo sapiens, UniProt P10635); assay: Inhibition of human liver CYP2D6; type: ADME
Cytochrome P450 2D6, sequence (P10635 whole entry): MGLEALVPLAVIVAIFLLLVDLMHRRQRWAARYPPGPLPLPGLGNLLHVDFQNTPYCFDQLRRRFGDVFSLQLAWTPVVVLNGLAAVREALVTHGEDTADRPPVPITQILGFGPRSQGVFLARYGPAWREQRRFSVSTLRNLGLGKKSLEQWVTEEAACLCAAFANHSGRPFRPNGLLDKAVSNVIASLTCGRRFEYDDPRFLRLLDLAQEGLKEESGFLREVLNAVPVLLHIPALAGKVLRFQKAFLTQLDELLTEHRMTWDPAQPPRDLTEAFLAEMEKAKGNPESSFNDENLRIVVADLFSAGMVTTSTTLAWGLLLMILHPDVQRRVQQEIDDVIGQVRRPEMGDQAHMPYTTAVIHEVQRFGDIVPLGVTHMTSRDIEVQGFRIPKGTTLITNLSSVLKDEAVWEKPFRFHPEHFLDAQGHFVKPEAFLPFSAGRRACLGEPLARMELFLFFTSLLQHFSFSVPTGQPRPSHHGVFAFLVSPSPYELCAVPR

[6] = Solubility of the compound in alcohol; type: physicochemical
Hepatitis C virus [7] = assay: Antiviral activity against HCV genotype 1b infected in human Huh7 cells after 3 days by cell-based replicon assay in presence of 40% normal human serum; type: functional, Hepacivirus hominis; conditions: Huh-7, 72 h
West Nile virus = assay: Antiviral activity against West Nile virus NY99 infected in african green monkey Vero-76 cells after 3 days; type: functional, organism-based; conditions: NY99, Vero 76, 72 h
Cytochrome P450 3A4 = Cytochrome P450 3A4 (Homo sapiens, UniProt P08684); assay: Inhibition of human liver CYP3A4; type: ADME
Cytochrome P450 3A4, sequence (P08684 whole entry): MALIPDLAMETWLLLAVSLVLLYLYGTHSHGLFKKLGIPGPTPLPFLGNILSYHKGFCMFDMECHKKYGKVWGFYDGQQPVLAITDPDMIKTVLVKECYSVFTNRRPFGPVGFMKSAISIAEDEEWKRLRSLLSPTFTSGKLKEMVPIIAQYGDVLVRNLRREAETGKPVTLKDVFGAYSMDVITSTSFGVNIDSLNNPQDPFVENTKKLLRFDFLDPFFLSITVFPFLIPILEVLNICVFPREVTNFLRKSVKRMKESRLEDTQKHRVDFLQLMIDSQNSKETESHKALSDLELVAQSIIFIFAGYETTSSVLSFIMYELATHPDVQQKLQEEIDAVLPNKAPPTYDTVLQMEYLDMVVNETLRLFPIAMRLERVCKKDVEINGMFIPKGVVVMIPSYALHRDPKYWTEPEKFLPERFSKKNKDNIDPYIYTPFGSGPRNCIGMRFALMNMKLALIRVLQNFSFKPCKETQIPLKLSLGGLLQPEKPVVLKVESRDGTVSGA

Rattus norvegicus [8] = species: Rattus norvegicus; assay: Toxicity in female rat assessed as adverse effect on reproductive organ; type: organism-based; conditions: in vivo
[9] = Lipophilicity, log P of the compound; type: physicochemical; conditions: octanol/water
[10] = Toxicity in ip dosed SHK mouse; type: organism-based; conditions: in vivo
Canis familiaris = species: Canis familiaris; assay: Toxicity in dog by 6-weeks study; type: organism-based, Canis lupus familiaris; conditions: in vivo, 1008 h
[11] = molecular target: Voltage-gated inwardly rectifying potassium channel KCNH2 (Homo sapiens, UniProt Q12809); assay: Binding affinity to human ERG at 3 to 30 uM
Voltage-gated inwardly rectifying potassium channel KCNH2, sequence (Q12809 whole entry): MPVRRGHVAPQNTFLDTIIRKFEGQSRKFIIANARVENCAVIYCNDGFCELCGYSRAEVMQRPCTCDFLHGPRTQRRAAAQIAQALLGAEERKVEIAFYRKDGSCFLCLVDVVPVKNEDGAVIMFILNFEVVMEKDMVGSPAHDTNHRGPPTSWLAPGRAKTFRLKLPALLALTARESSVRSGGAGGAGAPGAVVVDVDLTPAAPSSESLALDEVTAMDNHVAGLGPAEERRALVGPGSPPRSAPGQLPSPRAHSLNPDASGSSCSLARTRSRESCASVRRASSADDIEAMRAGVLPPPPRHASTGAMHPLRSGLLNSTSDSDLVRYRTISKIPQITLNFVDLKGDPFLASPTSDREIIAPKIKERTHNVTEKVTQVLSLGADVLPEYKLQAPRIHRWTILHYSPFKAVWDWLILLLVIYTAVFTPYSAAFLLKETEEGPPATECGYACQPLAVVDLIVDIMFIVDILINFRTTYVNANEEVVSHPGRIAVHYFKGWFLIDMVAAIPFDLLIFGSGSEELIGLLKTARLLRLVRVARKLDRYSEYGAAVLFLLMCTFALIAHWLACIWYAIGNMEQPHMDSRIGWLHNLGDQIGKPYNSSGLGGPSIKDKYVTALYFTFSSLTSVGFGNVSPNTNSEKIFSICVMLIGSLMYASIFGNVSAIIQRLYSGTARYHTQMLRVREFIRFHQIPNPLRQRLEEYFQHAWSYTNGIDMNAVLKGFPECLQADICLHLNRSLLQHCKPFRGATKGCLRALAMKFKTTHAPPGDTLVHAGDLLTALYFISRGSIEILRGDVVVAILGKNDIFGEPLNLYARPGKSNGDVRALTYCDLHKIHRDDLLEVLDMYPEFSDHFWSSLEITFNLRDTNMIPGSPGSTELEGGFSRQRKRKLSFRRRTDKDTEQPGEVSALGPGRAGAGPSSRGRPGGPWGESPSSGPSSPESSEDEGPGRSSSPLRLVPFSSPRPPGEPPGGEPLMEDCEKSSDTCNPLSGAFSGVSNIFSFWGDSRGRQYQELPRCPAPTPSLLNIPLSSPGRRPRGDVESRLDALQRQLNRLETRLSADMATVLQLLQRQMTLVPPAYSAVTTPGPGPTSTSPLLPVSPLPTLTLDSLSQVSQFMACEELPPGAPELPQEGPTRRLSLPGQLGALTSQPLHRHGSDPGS

[12] = Metabolic stability in dog liver microsomes assessed as residual compound at 1 uM after 60 mins; type: ADME, Canis lupus familiaris; conditions: read-out: Stability
Salmonella typhimurium [13] = assay: Mutagenicity in Salmonella typhimurium TA1537 assessed as increase in number of colonies by Ames test relative to control; type: toxicity, organism-based; conditions: salmonella enterica subsp. enterica serovar typhimurium
[14] = Metabolic stability in human liver microsomes assessed as residual compound at 1 uM after 60 mins; type: ADME; conditions: read-out: Stability
Mus musculus [15] = assay: (§1) Toxicity in po dosed female SHK mouse; type: organism-based; conditions: in vivo
[16] = as §1; type: organism-based; conditions: female, SHK, in vivo
[17] = Half life in beagle dog at 5 mg/kg, iv as 30 mins infusion; type: ADME, organism-based, Canis lupus familiaris; parameters: dose 5 mg/kg, route intravenous; conditions: in vivo
[18] = Half life in Sprague-Dawley rat at 2.8 mg/kg, iv as 30 mins infusion; type: ADME, organism-based; parameters: dose 2.8 mg/kg, route intravenous; conditions: in vivo
Rattus norvegicus [19] = assay: (§2) Toxicity in ip dosed male Wistar rat; type: organism-based; conditions: in vivo
[20] = as §2; type: organism-based; conditions: male, Wistar, in vivo
Rattus norvegicus [21] = assay: (§3) Toxicity in ip dosed female Wistar rat; type: organism-based; conditions: in vivo
[22] = as §3; type: organism-based; conditions: female, Wistar, in vivo
[23] = Oral bioavailability in beagle dog at 10 mg/kg; type: ADME, organism-based, Canis lupus familiaris; conditions: in vivo
Cytochrome P450 2C9 = Cytochrome P450 2C9 (Homo sapiens, UniProt P11712); assay: Inhibition of human liver CYP2C9; type: ADME
Cytochrome P450 2C9, sequence (P11712 whole entry): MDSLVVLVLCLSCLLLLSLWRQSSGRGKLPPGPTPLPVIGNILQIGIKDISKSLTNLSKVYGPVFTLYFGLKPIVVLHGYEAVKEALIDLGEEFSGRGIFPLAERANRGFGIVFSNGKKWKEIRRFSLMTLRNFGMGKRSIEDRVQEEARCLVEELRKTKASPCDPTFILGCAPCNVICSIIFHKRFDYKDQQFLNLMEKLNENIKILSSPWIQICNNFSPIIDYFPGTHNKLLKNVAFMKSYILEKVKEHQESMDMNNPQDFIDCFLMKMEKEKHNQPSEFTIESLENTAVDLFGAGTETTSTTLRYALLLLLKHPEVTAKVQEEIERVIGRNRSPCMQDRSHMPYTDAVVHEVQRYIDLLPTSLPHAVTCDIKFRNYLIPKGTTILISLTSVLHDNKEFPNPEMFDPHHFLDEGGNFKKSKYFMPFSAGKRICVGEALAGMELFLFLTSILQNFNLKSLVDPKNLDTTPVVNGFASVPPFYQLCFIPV

[24] = Therapeutic index, ratio of CC50 for human Huh7 cells to EC50 for HCV genotype 1b infected in human Huh7 cells; type: cell-based, Huh-7; conditions: read-out: Ratio CC50/EC50
Cytochrome P450 1A2 = molecular target: T1, Cytochrome P450 1A2 (Homo sapiens, UniProt P05177); assay: Inhibition of human liver CYP1A2; type: ADME
T1 sequence (P05177 whole entry): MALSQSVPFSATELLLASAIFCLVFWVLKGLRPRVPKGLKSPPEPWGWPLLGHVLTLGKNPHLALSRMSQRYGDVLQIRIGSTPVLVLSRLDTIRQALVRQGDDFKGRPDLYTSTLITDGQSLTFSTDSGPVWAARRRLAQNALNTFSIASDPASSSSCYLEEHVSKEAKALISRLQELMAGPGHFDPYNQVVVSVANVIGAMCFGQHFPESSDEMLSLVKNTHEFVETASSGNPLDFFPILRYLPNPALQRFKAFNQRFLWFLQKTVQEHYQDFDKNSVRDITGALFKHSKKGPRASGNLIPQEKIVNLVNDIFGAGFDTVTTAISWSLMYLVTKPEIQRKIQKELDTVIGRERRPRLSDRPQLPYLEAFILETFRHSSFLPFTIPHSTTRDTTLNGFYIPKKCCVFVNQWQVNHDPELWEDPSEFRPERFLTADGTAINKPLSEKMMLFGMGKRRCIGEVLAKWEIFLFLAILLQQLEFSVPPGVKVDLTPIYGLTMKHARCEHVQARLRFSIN

Hepatitis C virus [25] = assay: Antiviral activity against HCV genotype 1a; type: functional, Hepacivirus hominis; conditions: subtype 1a
Salmonella typhimurium [26] = assay: Mutagenicity in Salmonella typhimurium TA1535 assessed as increase in number of colonies by Ames test relative to control; type: toxicity, organism-based; conditions: salmonella enterica subsp. enterica serovar typhimurium
[27] = Half life in Sprague-Dawley rat at 11.2 mg/kg, po; type: ADME, organism-based; parameters: dose 11.2 mg/kg, route oral; conditions: in vivo
[28] = Cytotoxicity against Yellow fever virus infected african green monkey Vero 76 cells after 3 days; type: cell-based; conditions: chlorocebus sabaeus, Vero 76 cells infected with Yellow fever virus
[29] = Solubility of the compound in water at pH 7.4; type: physicochemical
[30] = Metabolic stability in rat liver microsomes assessed as residual compound at 1 uM after 60 mins; type: ADME; conditions: read-out: Stability
Salmonella typhimurium [31] = assay: Mutagenicity in Salmonella typhimurium TA98 assessed as increase in number of colonies by Ames test relative to control; type: toxicity, organism-based; conditions: salmonella enterica subsp. enterica serovar typhimurium
Rattus norvegicus [32] = assay: (§4) Toxicity in ip dosed Wistar rat; type: organism-based; conditions: in vivo
[33] = as §4; type: organism-based; conditions: Wistar, in vivo
[34] = Cytotoxicity against West Nile virus NY99 infected african green monkey Vero 76 cells after 3 days; type: cell-based; conditions: chlorocebus sabaeus, Vero 76 cells infected with West Nile virus NY99
[35] = Cytotoxicity against Dengue virus infected african green monkey Vero 76 cells after 3 days; type: cell-based; conditions: chlorocebus sabaeus, Vero 76 cells infected with Dengue virus
Rattus norvegicus [36] = species: Rattus norvegicus; assay: Toxicity in rat by 12-weeks study; type: organism-based; conditions: in vivo, 2016 h
[37] = Lipophilicity, log D of the compound at pH 7.4; type: physicochemical; conditions: buffer
Mus musculus [38] = assay: (§5) Toxicity in po dosed male SHK mouse; type: organism-based; conditions: in vivo
[39] = as §5; type: organism-based; conditions: male, SHK, in vivo
Hepatitis C virus [40] = assay: Antiviral activity against HCV genotype 2a; type: functional, Hepacivirus hominis
[41] = Solubility of the compound in dimethyl sulfoxide; type: physicochemical
[42] = Solubility of the compound in water at pH 2; type: physicochemical
Rattus norvegicus [43] = species: Rattus norvegicus; assay: Toxicity in male rat assessed as adverse effect on reproductive organ; type: organism-based; conditions: in vivo
Salmonella typhimurium [44] = assay: Mutagenicity in Salmonella typhimurium TA100 assessed as increase in number of colonies by Ames test relative to control; type: toxicity, organism-based; conditions: salmonella enterica subsp. enterica serovar typhimurium
Dengue virus = assay: Antiviral activity against Dengue virus infected in african green monkey Vero-76 cells after 3 days; type: functional, organism-based; conditions: Vero 76, 72 h
[45] = Half life in beagle dog at 10 mg/kg, po; type: ADME, organism-based, Canis lupus familiaris; parameters: dose 10 mg/kg, route oral; conditions: in vivo

COC(=O)N[C@H](C(=O)N1CCCC1c1ncc(C#CC#Cc2ccc(-c3cnc(C4CCCN4C(=O)[C@@H](NC(=O)OC)C(C)C)[nH]3)cc2)[nH]1)C(C)C.Cl (single isomer, unassigned; 13a)
CC50 [1]: 17.3 µM | EC50 (Hepatitis C virus [2]): 6.5 pM | bioavailability [3]: 65% | EC50 (Yellow fever virus): > 23.5 µM | EC50 (Hepatitis C virus [4]): 3.4 pM | solubility [5]: 2200 µM | IC50 (Cytochrome P450 2C19): > 10 µM | IC50 (Cytochrome P450 2D6): > 10 µM | solubility [6]: ≥ 10 µM | EC50 (Hepatitis C virus [7]): 21 pM | EC50 (West Nile virus): > 26.3 µM | IC50 (Cytochrome P450 3A4): > 10 µM | Activity (Rattus norvegicus [8]): Non-toxic | logP [9]: 4.99 | LD50 [10]: > 1600 mg/kg | Activity (Canis familiaris): Non-toxic | LD84 (Canis familiaris): 485.6 mg/kg | Activity [11]: < 10% | remaining at 1 h, 1 µM [12]: 84.7% | Activity (Salmonella typhimurium [13]): Non-toxic | remaining at 1 h, 1 µM [14]: 81.5% | LD10 (Mus musculus [15]): 1160.1 mg/kg | LD16 (Mus musculus [15]): 1565.7 mg/kg | LD84 (Mus musculus [15]): 4445.3 mg/kg | LD50 [16]: 3010 mg/kg | half-life [17]: 4.9 h | half-life [18]: 3.4 h | LD10 (Rattus norvegicus [19]): 228.6 mg/kg | LD50 [20]: 349 mg/kg | LD10 (Rattus norvegicus [21]): 228.4 mg/kg | LD50 [22]: 412 mg/kg | bioavailability [23]: 58% | IC50 (Cytochrome P450 2C9): > 10 µM | selectivity ratio [24]: > 5000 | IC50 (Cytochrome P450 1A2): > 10 µM | EC50 (Hepatitis C virus [25]): 59 pM | Activity (Salmonella typhimurium [26]): Non-toxic | half-life [27]: 3 h | CC50 at 72 h [28]: 23.5 µM | solubility [29]: 433 µM | remaining at 1 h, 1 µM [30]: 70.8% | Activity (Salmonella typhimurium [31]): Non-toxic | LD10 (Rattus norvegicus [32]): 234.2 mg/kg | LD50 [33]: 395 mg/kg | CC50 at 72 h [34]: 26.3 µM | CC50 at 72 h [35]: 28.4 µM | Activity (Rattus norvegicus [36]): Non-toxic | LD84 (Rattus norvegicus [36]): 651.3 mg/kg | logD [37]: 4.46 | LD10 (Mus musculus [38]): 2320.3 mg/kg | LD16 (Mus musculus [38]): 2565.4 mg/kg | LD84 (Mus musculus [38]): 4305.3 mg/kg | LD50 [39]: 3440 mg/kg | EC50 (Hepatitis C virus [40]): 51 pM | solubility [41]: ≥ 10 µM | solubility [42]: 208 µM | Activity (Rattus norvegicus [43]): Non-toxic | LD84 (Rattus norvegicus [43]): 593.2 mg/kg | Activity (Salmonella typhimurium [44]): Non-toxic | EC50 (Dengue virus): > 28.4 µM | half-life [45]: 4.5 h
